Measurements taken from US7018642B2 (The Procter & Gamble Company, priority 2001, dated 2006).

Tests used:
Format in all cases: cell-based
[1] = system: S. epidermidis strain ATCC 35984; assay: Improved biofilm dispersion screen (already-formed biofilms, crystal violet); details: Staphylococcus epidermidis, ATCC35984, no NaOH, positive = dispersion, negative = enhancement of pre-existing biofilm, quadruplicate, read-out: average percentage reduction of biofilm relative to the two control values (dispersion)
Description: (§1) A modification of method disclosed in Reference Example 2, which greatly improves the sensitivity and reproducibility of the dispersion screen is hereby disclosed. […] In the modification described herein, compounds are added in the presence of the fresh liquid growth media, such that the resultant biofilms continue to grow, unless a test compound triggers their dispersion. Overnight cultures are made as above, and 100 μL of the appropriate liquid growth media are dispensed into duplicate 96 well microplates—in this fashion, two identical microplates are set up for each bacterial species to be assayed. Neither compounds nor DMSO are added prior to the inoculation of bacteria, and growth in the duplicate plates for 24 hours is allowed using the conditions specified in Reference Example 1. After growth of biofilm to be tested in the wells, cells present in biofilm attached to one of the duplicate microplates is stained with CV, quantitated as described in Reference Example 1, and the data for the entire plate averaged, resulting in a growth control value, t0. The remaining replicate of each microplate pairs is treated with compounds in DMSO, or DMSO alone for control wells, by first removing the cell suspensions from the wells, then adding fresh 100 μL volumes of the same appropriate liquid growth media, followed by direct addition and mixing of the compound DMSO solutions to give final compound concentrations of 390 μM. Incubation of the compound-containing microplates is then continued for an additional 22–26 hours using the same conditions described in Reference Example 1. Cell suspensions are then removed, 100 μL per well of a 0 mM NaOH (S. epidermidis), 20 mM NaOH (P. fluorescens), or 30 mM NaOH (P. aeruginosa) solution in PBS is added, and incubation at room temperature is allowed for 30 minutes. No addition of NaOH is made to the S. epidermidis suspension since a test assay indicated no amplification by base with S. epidermidis. The microplates are subsequently rinsed three times with 150 μL per well of PBS, followed by final liquid removal, staining with CV and quantitation as described in Reference Example 1. Data for each well that contained compound result in a compound value, R, and data for control wells that contained DMSO only are averaged to generate a second control value, t24. The effect of each compound tested on dispersion of the biofilm compared to the two control values is calculated thus: [formula] […] Data are expressed in terms of the average percentage reduction of biofilm formed in the presence of each compound, relative to the two control values, for quadruplicate samples. Assays are run as described above, using compound concentrations of 390 μM. Positive numbers indicate dispersion (reduction) of pre-existing biofilms by a compound, and negative numbers indicate enhancement (stimulation of growth) of pre-existing biofilms by a compound (percentage coefficients of variation are ≦15%).

[2] = system: P. fluorescens strain ATCC 13525; assay: as above; details: Pseudomonas fluorescens, ATCC13525, 20 mM NaOH step, positive = dispersion, negative = enhancement of pre-existing biofilm, quadruplicate, read-out: average percentage reduction of biofilm relative to the two control values (dispersion)
Description: as §1

[3] = system: P. aeruginosa strain PAO1; assay: as above; details: Pseudomonas aeruginosa, 30 mM NaOH step, positive = dispersion, negative = enhancement of pre-existing biofilm, quadruplicate, read-out: average percentage reduction of biofilm relative to the two control values (dispersion)
Description: as §1

[4] = system: S. epidermidis strain ATCC 35984; assay: Biofilm prevention screen (96-well microplate, crystal violet); details: Staphylococcus epidermidis, positive = prevention, negative = enhancement of biofilm formation, quadruplicate, read-out: average percentage reduction of biofilm formed relative to DMSO controls; for inhibition at 32 µM: ATCC35984, 32 μM; for inhibition at 160 µM: ATCC35984, 160 μM; for inhibition at 390 µM: ATCC35984, 390 μM
Description: (§2) Overnight cultures of 3 mL are made of P. aeruginosa strain PAO1 (grown in R2A medium (Handbook of Microbiological Media; CRC Press, 1997, second edition, R. M. Atlas, ed.), modified to omit Mg^2+ but to include 0.3–0.5% fructose (pH 7.0) and 3 μM ferrous ammonium sulfate), P. fluorescens strain ATCC 13525 (grown in R2A modified to omit Mg^2+ but to include 0.3–0.5% sodium pyruvate (pH 7.0)), S. epidermidis strain ATCC 35984 (grown in a ¼ dilution of TSB (Handbook of Microbiological Media; CRC Press, 1997, second edition, R. M. Atlas, ed.) supplemented with 1% fructose (pH 7.0) and 3 μM ferrous ammonium sulfate). To each type of growth medium, HEPES (pH 7.3) is optionally added to a final concentration of 10 mM.
(§3) To PS, PVC, or PP (preferably PP or PVC) round-bottom, 96-well microplates containing 100 μl per well of the respective growth medium as described above, compounds to be tested (dissolved in DMSO) are added and mixed, to give a final concentration of 250–500 μM. These microplates then also are used to make successive dilutions of the compounds in the same respective growth medium to yield microplates containing final concentrations of, for example, 160 μM and 32 μM of the same set of compounds. Control wells are included in the dilution series that contain only DMSO. From the 3 ml overnight cultures, each of the three dilution plate sets is inoculated with 5 μl per well of a 1:1 dilution in the same liquid growth media of the appropriate culture. The covered plate is then incubated with shaking, at 30° C. (for P. aeruginosa or P. fluorescens) or 37° C. (for S. epidermidis), at 200 rpm, for 16–26 hours, in a humidity controlled environment.
(§4) Cells present in biofilm attached to the microplate surface are stained with CV either after removal of the liquid from each well, followed by rinsing three times (aspiration and addition) with 150 μl per well phosphate buffered saline solution (PBS) and final addition of 100 μl per well of PBS, or by direct addition of stain to bacterial cultures without rinsing. To 100 μl per well of PBS or of bacterial culture, 25 μl/well of 1% CV solution (in ˜10% ethanol) is added. After incubation at room temperature for 45 minutes, the dye solution is removed from the plates. Residual dye is immediately removed by gentle rinsing with a stream of deionized water by filling and inverting the plates 4–5 times, or by using an automated pipettor. Rinsed plates are air-dried at room temperature for 0.5–2 hours. Bound dye is extracted by the addition of 150 μL per well of 95% ethanol, followed by vigorous mixing for 10–15 seconds and incubation for 45 minutes at room temperature without shaking. Subsequently, either undiluted or diluted (in ethanol) samples of extracted CV are transferred to flat bottom, polystyrene microtiter plates and absorbances at 586 nm were measured in a microplate reader. Readings from wells containing compounds are compared to the average of data from control wells that contain only DMSO. Replicate samples are measured, and results are reported as averages of the replicate well data points.
(§5) Data are expressed in terms of the average percentage reduction of biofilm formed in the presence of each compound, relative to the DMSO controls, for quadruplicate samples. Assays are run using the three compound concentrations indicated. Positive numbers indicate prevention of biofilm formation by a compound, and negative numbers indicate enhancement of biofilm formation by a compound (percentage coefficients of variation are ≦10%).

[5] = system: P. fluorescens strain ATCC 13525; assay: as above; details: Pseudomonas fluorescens, positive = prevention, negative = enhancement of biofilm formation, quadruplicate, read-out: average percentage reduction of biofilm formed relative to DMSO controls; for inhibition at 32 µM: ATCC13525, 32 μM; for inhibition at 160 µM: ATCC13525, 160 μM; for inhibition at 390 µM: ATCC13525, 390 μM
Description: as §2, §3, §4, §5

[6] = system: P. aeruginosa strain PAO1; assay: as above; details: Pseudomonas aeruginosa, positive = prevention, negative = enhancement of biofilm formation, quadruplicate, read-out: average percentage reduction of biofilm formed relative to DMSO controls
Description: as §2, §3, §4, §5

SMILES	inhibition at 390 µM [1] [%]	inhibition at 390 µM [2] [%]	inhibition at 390 µM [3] [%]	inhibition at 32 µM [4] [%]	inhibition at 160 µM [4] [%]	inhibition at 390 µM [4] [%]	inhibition at 32 µM [5] [%]	inhibition at 160 µM [5] [%]	inhibition at 390 µM [5] [%]	inhibition at 32 µM [6] [%]	inhibition at 160 µM [6] [%]	inhibition at 390 µM [6] [%]
CCCCCCNC(=O)[C@@H]1CCCN1 [Compound 30]	-11	20	1	-12	-7	-6	11	11	19	2	9	18
CCCCCCCCNC(=O)C1CCCN1C(C)=O (stereo not drawn) [Compound 8]	0	-1	-30	-13	-22	-32	-12	-26	-24	-9	-11	-9
CCCCCCNC(=O)[C@@H]1CCN1 [Compound 287]	71	-18	-70	74	101	101	-42	-7	40	-1	11	-2
CCCCCCCCCCNC(=O)[C@H]1CCCN1C(=O)OC(C)(C)C [Compound 158]	0	-79	-53	-10	52	54	3	-11	-40	1	-34	-40
CCCCCCCCCCNC(=O)C1CCCN1C(C)=O (stereo not drawn) [Compound 9]	21	-1	-68	-21	-69	33	-6	-9	0	-6	-4	-26
CCCCCCCCCCNC(=O)[C@@H]1CCN1 [Compound 289, (S)-(−)-2-azetidinecarboxylic acid n-decyl amide]	84	19	-54	39	101	101	-8	45	99	9	-2	77
CCCCNC(=O)[C@H]1CCCN1 [Compound 162]	0	0	-23	-4	-8	-47	7	1	11	-9	-13	-9
CC(C)(C)OC(=O)N1CCC[C@@H]1C(=O)NCCCCCCCCCCCCNC(=O)[C@H]1CCCN1C(=O)OC(C)(C)C [Compound 225, N-(tert-Butoxycarbonyl)-D-proline 1,12-diaminododecane bisamide]	0	-85	-23	-21	-24	-39	14	0	-14	11	7	-8
CCCCCCCCNC(=O)[C@@H]1CCCCN1C(C)=O [Compound 21]	-8	-16	-39	-15	-23	-24	2	4	20	-6	-12	-11
